# How the values were obtained:
# [1] = tested on: healthy fibroblasts and keratinocytes; test: Cell viability / morphology in healthy cells; format: cell-based, human; details: 25 µM, 48 h
# Description: Brightfield images were captured using a Leica DMi8 microscope with a 10X or 20X objective (HC PL FLUOTAR 10X/0.45 or 20X/0.75) equipped with a Leica DFC9000GT camera, and processed with a Leica Application Suite X (LAS X) Life Science Microscope Software (v3.5.5.19976, RRID:SCR_013673).
# colorectal cancer cells [2] = test: Mitochondrial membrane potential (MitoTracker Red); format: cell-based, human
# Protocol: Cancer cells (1 × 10^3) were cultured in 8-well collagen IV Ibidi chamber slides and treated with DMSO or NK-A 17E-233I (25 µM) for 24 h. The media was replaced with fresh media containing 100 nM MitoTracker Red dye to measure ΔΨm (1 mM stock; #M7512; Thermo Fisher Scientific) and 5 µM CellROX Deep Red Reagent to assess oxidative stress levels (2.5 mM stock; #C10422; Thermo Fisher Scientific) for 45 min. The cells were then fixed with 4% methanol-free PFA, washed with PBS, and mounted with Ibidi mounting medium containing 4',6-diamidino-2-phenylindole (DAPI) prior to imaging.
# The density of γ-H2AX, Rad51, ΔΨm, and oxidative stress in cancer cells was measured as described in [32], utilizing custom macros available as open access at Zenodo (https://zenodo.org/records/8387899) to obtain raw intensities and individual cell area.
# colorectal cancer cells [3] = test: Neutral comet assay; format: cell-based, human; details: 25 µM
# Protocol: The assay was conducted as described in [20]. Cancer cells (2–3 × 10^5) were cultured in 6-well plates and treated with DMSO or NK-A 17E-233I (25 µM) for 1 or 24 h. After treatment, the cells were harvested and suspended in Comet Low Melting Agarose (LMA; Trevigen). Once the LMA solidified, the glass slides (CometSlide) were placed in a cell lysis buffer at 4 °C overnight. Electrophoresis was performed using a comet assay electrophoresis system (21 V for 40 min). The slides were subsequently washed and stained with SYBR® Gold dye (Invitrogen) in the dark for 30 min. DNA migration was observed using a fluorescence microscope (AF6000, Leica) equipped with a HCX PL APO 63x (NA = 1.4) oil objective. Comet tail lengths were measured with ImageJ/FIJI, analyzing over 100 cells per each condition.
# SW620 cells [4] = test: Mitochondrial respiration (OCR) in intact cells; format: cell-based, human; details: 24 h
# Protocol: Oxygen consumption rate (OCR) was measured using a high-resolution respirometer (Oxygraph-2k, Oroboros Instruments, Innsbruck, Austria). SW620 cells (2.2 × 10^6) were cultured in 100-mm Petri dishes and treated with DMSO or NK-A 17E-233I (25 µM) for 24 h. Cells were harvested at 80% confluency using 0.25% trypsin/EDTA and resuspended in complete DMEM at a concentration of 5 × 10^5 cells/mL. The cells were subsequently analyzed in two 2 mL Oxygraph chambers. Real-time measurements of OCR were conducted at 37 °C under basal conditions and following the sequential addition of inhibitors targeting various mitochondrial respiratory complexes: oligomycin (2.5 μM) to inhibit complex V (to assess ATP-linked respiration and leak rate), carbonyl cyanide-p-trifluoromethoxyphenylhydrazone (FCCP) with stepwise titration in 0.5 μM increments (to evaluate maximal electron transport system respiratory capacity and reserve capacity), and rotenone (0.5 μM) and antimycin A (2.5 μM) to inhibit complex I and complex III, respectively (to measure non-mitochondrial oxygen consumption). The values of OCR were normalized to mitochondrial DNA copy number, which was quantified by qPCR using the primers referenced above. Data analysis was performed using DatLab7 (Oroboros, Austria) software.
# [5] = tested on: human colorectal cancer cell lines; test: Cell viability assay (CellTiter-Glo); format: cell-based; details: dose-dependent; 48 h
# [6] = tested on: tumor-derived intestinal organoids; test: Organoid viability (CellTiter-Glo 3D); format: cell-based, human; details: 96 h
# colorectal cancer cells [7] = test: Western blot; format: cell-based, human
# Protocol: Cancer cells (2.2 × 10^6) were cultured in 100-mm Petri dishes and treated with DMSO or NK-A 17E-233I (25 µM) for 48 h. Cells were harvested by scrapping into 2 × Laemmli buffer (4% SDS, 20% glycerol, 125 mM Tris–HCl, pH 6.8) and heated at 100 °C for 5 min. A 4 × Laemmli sample buffer containing β-mercaptoethanol was added to the cell lysates. The proteins were separated using sodium dodecyl sulfate polyacrylamide gel electrophoresis (SDS-PAGE) and subsequently transferred to polyvinylidene fluoride (PVDF) membranes (#88518; Thermo Fisher Scientific) following the manufacturer’s protocols. The membranes were blocked at room temperature for 1 h with 5% dried skimmed milk in Tris-buffered saline with Tween-20 (TBS-T) (20 mM Tris–HCl, pH 7.5, 150 mM NaCl, 0.1% Tween-20), and the blots were incubated with the corresponding antibodies at a dilution of 1:1000–1:3000 in a blocking buffer at 4 °C overnight.
# Primary antibodies utilized in this study included: anti-human DHODH (#SC-166348; Santa Cruz), anti–CHK1-pS345 (#2348; Cell Signaling), anti-POLD2 (#29765–1-AP; Proteintech), anti-POLD1 (#15646–1-AP; Proteintech), anti-p53 (#SC-126; Santa Cruz), anti-KRAS, clone 4F3 (#SAB1404011; Sigma-Aldrich), anti-GAPDH (#ab9489; Abcam), anti–α-tubulin (#T9026; Sigma-Aldrich), anti-BAX (#SC-23959; Santa Cruz), anti-cytochrome c (#66264–1-IG; Proteintech), anti-DR5 (#3696; Cell Signaling, dilution 1:500), anti–caspase-8 (#SC-56070; Santa Cruz), and anti–caspase-3 (#9662; Cell Signaling, dilution 1:500). The membranes were incubated at room temperature for 1 h with secondary antibodies (diluted 1:3000–5000), either anti-rabbit (#A0545; Sigma-Aldrich) or anti-mouse IgG-horseradish peroxidase-conjugated (#A9044; Sigma-Aldrich), in TBS-T. The images were analyzed and quantified using ImageStudio software (LI-COR) or ImageQuant 10.2 TL analysis software (Cytiva Life Sciences).
# SW620 cells [8] = test: Lactate assay; format: cell-based, human; details: 25 µM, 24 h; in comparison to Brequinar (100 µM)
# Protocol: This assessment was conducted utilizing a Lactate Assay Kit-WST (#L256-20; Dojindo Laboratories), in accordance with the manufacturer's protocol. Optical density measurements were recorded at 450 nm using a Victor Multilabel Plate Reader.
structure (smiles),measurement,setting,value
COc1cc(C)c(Oc2cc(C)cc(O)c2O)c(O)c1 [NK-A 17E-233I],cytotoxic effects in healthy cells,[1],no similar effects were observed
same,mitochondrial membrane potential (ΔΨm),"colorectal cancer cells [2]; HCT116, 25 µM, 24 h",significantly decreased
same,mitochondrial membrane potential (ΔΨm),"colorectal cancer cells [2]; different cancer cell lines (HT-29), 25 µM",decreased
same,comet tails (DNA double-strand breaks),colorectal cancer cells [3],longer comet tails
same,maximal respiration,SW620 cells [4]; 25 µM,significantly decreased
same,basal and ATP-linked respiration in intact cells,"SW620 cells [4]; NK-A 17E-233I 25 µM, Brequinar 100 µM",retained basal respiration
same,viability,[5],reduced the viability
same,sensitivity of tumor-derived organoids,[6],demonstrated sensitivity to NK-A 17E-233I in a dose-dependent manner
same,expression of wild-type p53 protein,colorectal cancer cells [7]; 25 µM,without influencing the expression
same,phosphorylation of CHK1 (pS345),colorectal cancer cells [7]; 25 µM,confirmed the phosphorylation of CHK1
same,expression levels of DHODH,"colorectal cancer cells [7]; 25 µM, 48 h",did not observe a change
same,"levels of apoptotic markers (DR5, caspase-8, Bax, cytochrome c, caspase-3)","colorectal cancer cells [7]; 25 µM, 48 h",increased levels
same,protein expression levels of POLD1 and POLD2,"colorectal cancer cells [7]; 25 µM, 48 h",reductions
same,expression of KRAS G13D mutant protein,colorectal cancer cells [7]; HCT116 cells,reduced
same,levels of p53-mutant protein,"colorectal cancer cells [7]; NK-A 17E-233I 25 µM, Brequinar",reduced
same,expression of KRAS G12V mutant protein,colorectal cancer cells [7]; SW620 cells,reduced
same,concentration of lactate,SW620 cells [8],significantly reduced
